# Reference: patent publication US20160223562A1, “Method for Determining the Concentration of a Peptide” (JPT Peptide Technologies GmbH, priority 2010, published 2016)
# Square brackets hold non-standard residues; d marks the D form. Peptide text beside a SMILES is read from it. Tyr(3-NO2) = N[C@@H](Cc1ccc(O)c([N+](=O)[O-])c1)C(=O)O
# Molecular target: T1, Trypsin (Sus scrofa, UniProt P00761)
# T1 construct: purchased Promega Corporation V511
# Test: Trypsin cleavage of N-terminal quantification tag Ac-nitroTyr-SGK- from peptides, LC-MS with UV detection at 350 nm
# Format: biochemical
# Conditions: trypsin protocol of example 9, 24 h, RT
# Method: Trypsin Activation: Trypsin (20 μg, sequencing grade modified trypsin, Promega Corporation, Madison, Wis., USA, catalogue no. V511, specific activity 16.965 u/mg) was dissolved in Trypsin resuspension buffer (200 μL, Promega, catalogue no. V542A, ingredient 50 mM acetic acid) and incubated for 15 min at 37° C.
# Reduction and alkylation: The peptide (approx. 0.05 mg) was dissolved in 1 M urea and 100 mM fresh ammonium hydrogen carbonate (300 μL). TCEP (Tris(2-carboxyethyl) phosphine hydrochloride, 0.2 M, 7.5 μL, final concentration 5 mM) was added and the solution incubated at 37° C. for 1 h. After addition of iodoacetamide (0.5 M, 6.0 μL, final concentration 10 mM) the solution was incubated at RT in the dark for another 30 min. Digestion: The sample was digested with activated Trypsin solution (10 μL per well, 1.0 μg, resulting enzyme/substrate ratio 1:50) over night at RT. To stop the digestion, HCl (2 M, 8 μL final concentration 50 mM) and TFA (3.2 μL, final concentration 1%, pH<2) were added. Finally, the sample was analyzed by LC-MS at 350 nm.
# 38 peptides carrying the N-terminal quantification-tag Ac-nitroTyr-SGK-(SEQ ID NO:32) were synthesized by SPOT synthesis (Table 3). The peptide sequences are based on two different amino acid sequences, which in each case contain 19 different amino acids N-terminally attached to lysine (the 20 naturally occurring amino acids except cysteine).
# All peptides were subjected to the same trypsin cleavage protocol as described in example 9. It is apparent that the quantification tag is efficiently cleaved (>99%) in nearly all cases.
# T1 sequence (P00761 9-231): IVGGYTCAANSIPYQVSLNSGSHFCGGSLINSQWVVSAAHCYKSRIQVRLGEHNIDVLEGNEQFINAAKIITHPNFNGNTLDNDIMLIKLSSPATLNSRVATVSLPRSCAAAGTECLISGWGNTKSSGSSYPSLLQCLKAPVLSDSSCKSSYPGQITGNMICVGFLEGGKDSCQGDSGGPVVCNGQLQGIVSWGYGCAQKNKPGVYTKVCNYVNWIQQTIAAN
row,SMILES,"Kusebauch 24 h, RT: Percent Cleavage of Tag [by UV350 - Peptide-Tag vs. Tag] [%]"
1,"CC(=O)N[C@@H](Cc1ccc(O)c([N+](=O)[O-])c1)C(=O)N[C@@H](CO)C(=O)NCC(=O)N[C@@H](CCCCN)C(=O)NCC(=O)N[C@H](C(=O)N[C@@H](C)C(=O)N[C@@H](CC(C)C)C(=O)N[C@@H](CO)C(=O)N[C@@H](CC(C)C)C(=O)N[C@@H](CC(=O)O)C(=O)N[C@@H](CC(=O)O)C(=O)N[C@H](C(=O)N[C@@H](CCCCN)C(=O)O)C(C)C)C(C)C [Peptide 26, Ac-nitroTyr-SGKGVALSLDDV-K-OH] (Ac-[Tyr(3-NO2)]SGKGVALSLDDVK-OH)",99.3
2,"CC[C@H](C)[C@H](NC(=O)[C@H](CCCCN)NC(=O)CNC(=O)[C@H](CO)NC(=O)[C@H](Cc1ccc(O)c([N+](=O)[O-])c1)NC(C)=O)C(=O)N[C@H](C(=O)N[C@@H](C)C(=O)N[C@@H](CC(C)C)C(=O)N[C@@H](CO)C(=O)N[C@@H](CC(C)C)C(=O)N[C@@H](CC(=O)O)C(=O)N[C@@H](CC(=O)O)C(=O)N[C@H](C(=O)N[C@@H](CCCCN)C(=O)O)C(C)C)C(C)C [Peptide 28, Ac-nitroTyr-SGKIVALSLDDV-K-OH] (Ac-[Tyr(3-NO2)]SGKIVALSLDDVK-OH)",100.0
3,"CC(=O)N[C@@H](Cc1ccc(O)c([N+](=O)[O-])c1)C(=O)N[C@@H](CO)C(=O)NCC(=O)N[C@@H](CCCCN)C(=O)N[C@@H](CCCCN)C(=O)N[C@H](C(=O)N[C@@H](C)C(=O)N[C@@H](CC(C)C)C(=O)N[C@@H](CO)C(=O)N[C@@H](CC(C)C)C(=O)N[C@@H](CC(=O)O)C(=O)N[C@@H](CC(=O)O)C(=O)N[C@H](C(=O)N[C@@H](CCCCN)C(=O)O)C(C)C)C(C)C [Peptide 29, Ac-nitroTyr-SGKKVALSLDDV-K-OH] (Ac-[Tyr(3-NO2)]SGKKVALSLDDVK-OH)",100.0
4,"CC(=O)N[C@@H](Cc1ccc(O)c([N+](=O)[O-])c1)C(=O)N[C@@H](CO)C(=O)NCC(=O)N[C@@H](CCCCN)C(=O)N1CCC[C@H]1C(=O)N[C@H](C(=O)N[C@@H](C)C(=O)N[C@@H](CC(C)C)C(=O)N[C@@H](CO)C(=O)N[C@@H](CC(C)C)C(=O)N[C@@H](CC(=O)O)C(=O)N[C@@H](CC(=O)O)C(=O)N[C@H](C(=O)N[C@@H](CCCCN)C(=O)O)C(C)C)C(C)C [Peptide 33, Ac-nitroTyr-SGKPVALSLDDV-K-OH] (Ac-[Tyr(3-NO2)]SGKPVALSLDDVK-OH)",5.4
5,"CC(=O)N[C@@H](Cc1ccc(O)c([N+](=O)[O-])c1)C(=O)N[C@@H](CO)C(=O)NCC(=O)N[C@@H](CCCCN)C(=O)N[C@@H](CCCNC(=N)N)C(=O)N[C@H](C(=O)N[C@@H](C)C(=O)N[C@@H](CC(C)C)C(=O)N[C@@H](CO)C(=O)N[C@@H](CC(C)C)C(=O)N[C@@H](CC(=O)O)C(=O)N[C@@H](CC(=O)O)C(=O)N[C@H](C(=O)N[C@@H](CCCCN)C(=O)O)C(C)C)C(C)C [Peptide 35, Ac-nitroTyr-SGKRVALSLDDV-K-OH] (Ac-[Tyr(3-NO2)]SGKRVALSLDDVK-OH)",100.0

# Now from value to compound:
row,"Kusebauch 24 h, RT: Percent Cleavage of Tag [by UV350 - Peptide-Tag vs. Tag] [%]",SMILES
1,100.0,"CC(=O)N[C@@H](Cc1ccc(O)c([N+](=O)[O-])c1)C(=O)N[C@@H](CO)C(=O)NCC(=O)N[C@@H](CCCCN)C(=O)N[C@@H](CCC(=O)O)C(=O)N[C@H](C(=O)N[C@@H](C)C(=O)N[C@@H](CC(C)C)C(=O)N[C@@H](CO)C(=O)N[C@@H](CC(C)C)C(=O)N[C@@H](CC(=O)O)C(=O)N[C@@H](CC(=O)O)C(=O)N[C@H](C(=O)N[C@@H](CCCCN)C(=O)O)C(C)C)C(C)C [Peptide 24, Ac-nitroTyr-SGKEVALSLDDV-K-OH] (Ac-[Tyr(3-NO2)]SGKEVALSLDDVK-OH)"
2,100.0,"CC(=O)N[C@@H](Cc1ccc(O)c([N+](=O)[O-])c1)C(=O)N[C@@H](CO)C(=O)NCC(=O)N[C@@H](CCCCN)C(=O)N[C@@H](Cc1ccccc1)C(=O)N[C@H](C(=O)N[C@@H](C)C(=O)N[C@@H](CC(C)C)C(=O)N[C@@H](CO)C(=O)N[C@@H](CC(C)C)C(=O)N[C@@H](CC(=O)O)C(=O)N[C@@H](CC(=O)O)C(=O)N[C@H](C(=O)N[C@@H](CCCCN)C(=O)O)C(C)C)C(C)C [Peptide 25, Ac-nitroTyr-SGKFVALSLDDV-K-OH] (Ac-[Tyr(3-NO2)]SGKFVALSLDDVK-OH)"
3,100.0,"CC(=O)N[C@@H](Cc1ccc(O)c([N+](=O)[O-])c1)C(=O)N[C@@H](CO)C(=O)NCC(=O)N[C@@H](CCCCN)C(=O)N[C@@H](Cc1c[nH]cn1)C(=O)N[C@H](C(=O)N[C@@H](C)C(=O)N[C@@H](CC(C)C)C(=O)N[C@@H](CO)C(=O)N[C@@H](CC(C)C)C(=O)N[C@@H](CC(=O)O)C(=O)N[C@@H](CC(=O)O)C(=O)N[C@H](C(=O)N[C@@H](CCCCN)C(=O)O)C(C)C)C(C)C [Peptide 27, Ac-nitroTyr-SGKHVALSLDDV-K-OH] (Ac-[Tyr(3-NO2)]SGKHVALSLDDVK-OH)"
4,100.0,"CC(=O)N[C@@H](Cc1ccc(O)c([N+](=O)[O-])c1)C(=O)N[C@@H](CO)C(=O)NCC(=O)N[C@@H](CCCCN)C(=O)N[C@@H](CC(C)C)C(=O)N[C@H](C(=O)N[C@@H](C)C(=O)N[C@@H](CC(C)C)C(=O)N[C@@H](CO)C(=O)N[C@@H](CC(C)C)C(=O)N[C@@H](CC(=O)O)C(=O)N[C@@H](CC(=O)O)C(=O)N[C@H](C(=O)N[C@@H](CCCCN)C(=O)O)C(C)C)C(C)C [Peptide 30, Ac-nitroTyr-SGKLVALSLDDV-K-OH] (Ac-[Tyr(3-NO2)]SGKLVALSLDDVK-OH)"
5,100.0,"CSCC[C@H](NC(=O)[C@H](CCCCN)NC(=O)CNC(=O)[C@H](CO)NC(=O)[C@H](Cc1ccc(O)c([N+](=O)[O-])c1)NC(C)=O)C(=O)N[C@H](C(=O)N[C@@H](C)C(=O)N[C@@H](CC(C)C)C(=O)N[C@@H](CO)C(=O)N[C@@H](CC(C)C)C(=O)N[C@@H](CC(=O)O)C(=O)N[C@@H](CC(=O)O)C(=O)N[C@H](C(=O)N[C@@H](CCCCN)C(=O)O)C(C)C)C(C)C [Peptide 31, Ac-nitroTyr-SGKMVALSLDDV-K-OH] (Ac-[Tyr(3-NO2)]SGKMVALSLDDVK-OH)"
6,100.0,"CC(=O)N[C@@H](Cc1ccc(O)c([N+](=O)[O-])c1)C(=O)N[C@@H](CO)C(=O)NCC(=O)N[C@@H](CCCCN)C(=O)N[C@@H](CC(N)=O)C(=O)N[C@H](C(=O)N[C@@H](C)C(=O)N[C@@H](CC(C)C)C(=O)N[C@@H](CO)C(=O)N[C@@H](CC(C)C)C(=O)N[C@@H](CC(=O)O)C(=O)N[C@@H](CC(=O)O)C(=O)N[C@H](C(=O)N[C@@H](CCCCN)C(=O)O)C(C)C)C(C)C [Peptide 32, Ac-nitroTyr-SGKNVALSLDDV-K-OH] (Ac-[Tyr(3-NO2)]SGKNVALSLDDVK-OH)"
7,100.0,"CC(=O)N[C@@H](Cc1ccc(O)c([N+](=O)[O-])c1)C(=O)N[C@@H](CO)C(=O)NCC(=O)N[C@@H](CCCCN)C(=O)N[C@@H](CCC(N)=O)C(=O)N[C@H](C(=O)N[C@@H](C)C(=O)N[C@@H](CC(C)C)C(=O)N[C@@H](CO)C(=O)N[C@@H](CC(C)C)C(=O)N[C@@H](CC(=O)O)C(=O)N[C@@H](CC(=O)O)C(=O)N[C@H](C(=O)N[C@@H](CCCCN)C(=O)O)C(C)C)C(C)C [Peptide 34, Ac-nitroTyr-SGKQVALSLDDV-K-OH] (Ac-[Tyr(3-NO2)]SGKQVALSLDDVK-OH)"
